Columns and labels:
Format in all cases: in vivo
[1] = tested on: giant foxtail (Setaria faberii); experiment: Test A preemergence; conditions: Setaria faberi, pre-emergence, 240 h, preemergence, 0 to 100 scale where 0 is no effect and 100 is complete control, read-out: Foxtail, Giant plant response rating
How it was run: (§1)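 Preemergence directed soil spray on seeded pots, or postemergence application to plants 2–10 cm, one- to two-leaf. Solvent mixture non-phytotoxic, with surfactant. Scored ~10 d later, visually, 0–100 vs untreated.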

[2] = tested on: Galium (catchweed bedstraw, Galium aparine); experiment: Test A postemergence; conditions: Galium, post-emergence, 240 h, postemergence, read-out: Galium plant response rating
How it was run: as §1

[3] = tested on: Kochia (Kochia scoparia); experiment: Test A postemergence; conditions: Bassia scoparia, post-emergence, 240 h, postemergence, read-out: Kochia plant response rating
How it was run: as §1

[4] = tested on: barnyardgrass (Echinochloa crus-galli); experiment: Test A postemergence; conditions: Echinochloa crus-galli, post-emergence, 240 h, postemergence, read-out: Barnyardgrass plant response rating
How it was run: as §1

[5] = tested on: blackgrass (Alopecurus myosuroides); experiment: Test A postemergence; conditions: Alopecurus myosuroides, post-emergence, 240 h, postemergence, read-out: Blackgrass plant response rating
How it was run: as §1

[6] = tested on: corn (Zea mays); experiment: Test A postemergence; conditions: Zea mays, post-emergence, 240 h, postemergence, read-out: Corn plant response rating
How it was run: as §1

[7] = tested on: giant foxtail (Setaria faberii); experiment: Test A postemergence; conditions: Setaria faberi, post-emergence, 240 h, postemergence, read-out: Foxtail, Giant plant response rating
How it was run: as §1

[8] = tested on: pigweed (Amaranthus retroflexus); experiment: Test A postemergence; conditions: Amaranthus retroflexus, post-emergence, 240 h, postemergence, read-out: Pigweed plant response rating
How it was run: as §1

[9] = tested on: ragweed (common ragweed, Ambrosia elatior); experiment: Test A postemergence; conditions: Ambrosia artemisiifolia, post-emergence, 240 h, postemergence, read-out: Ragweed plant response rating
How it was run: as §1

[10] = tested on: ryegrass, Italian (Italian ryegrass, Lolium multiflorum); experiment: Test A postemergence; conditions: Lolium multiflorum, post-emergence, 240 h, postemergence, read-out: Ryegrass, Italian plant response rating
How it was run: as §1

[11] = tested on: wheat (Triticum aestivum); experiment: Test A postemergence; conditions: Triticum aestivum, post-emergence, 240 h, postemergence, read-out: Wheat plant response rating
How it was run: as §1

[12] = tested on: barnyardgrass (Echinochloa crus-galli); experiment: Test B flooded paddy test; conditions: Echinochloa crus-galli, 250 g ai/ha, Flood; 0 to 100 scale where 0 is no effect and 100 is complete control; read-out: Barnyardgrass plant response rating
How it was run: (§2)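 Plants at 2-leaf stage flooded to 3 cm above soil, with compounds applied directly to paddy water and that depth maintained. Plants kept in greenhouse 13–15 d. Visual rating versus controls on a 0 (no effect) to 100 (complete control) scale.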

[13] = tested on: ducksalad (Heteranthera limosa); experiment: Test B flooded paddy test; conditions: Heteranthera limosa, 250 g ai/ha, Flood; 0 to 100 scale where 0 is no effect and 100 is complete control; read-out: Ducksalad plant response rating
How it was run: as §2

[14] = tested on: rice (Oryra sativa); experiment: Test B flooded paddy test; conditions: Oryza sativa, 250 g ai/ha, Flood; 0 to 100 scale where 0 is no effect and 100 is complete control; read-out: Rice plant response rating
How it was run: as §2

[15] = tested on: sedge, umbrella (small-flower umbrella sedge, Cyperus difformis); experiment: Test B flooded paddy test; conditions: Cyperus difformis, 250 g ai/ha, Flood; 0 to 100 scale where 0 is no effect and 100 is complete control; read-out: Sedge, Umbrella plant response rating
How it was run: as §2

[16] = 125 g ai/ha, visual injury on 0 to 100 scale (0 no effect, 100 complete control), approx. 10 d
[17] = 500 g ai/ha, 0 to 100 scale, 0 is no effect, 100 is complete control

Structure (SMILES): CC(C)Oc1ccc([C@H]2CNC(=O)[C@@H]2C(=O)Nc2ccccc2F)cc1 [Compound 1135]
- pest or weed control at 125 g/ha ([1]; 125 g ai/ha, approx. 10 d): 0%
- pest or weed control at 500 g/ha ([1]; 500 g ai/ha): 0%
- pest or weed control at 125 g/ha [2, 16]: 0%
- pest or weed control at 500 g/ha [2, 17]: 0%
- pest or weed control at 125 g/ha [3, 16]: 0%
- pest or weed control at 500 g/ha [3, 17]: 0%
- pest or weed control at 125 g/ha [4, 16]: 0%
- pest or weed control at 500 g/ha [4, 17]: 0%
- pest or weed control at 125 g/ha [5, 16]: 0%
- pest or weed control at 500 g/ha [5, 17]: 0%
- plant injury at 125 g/ha [6, 16]: 0%
- plant injury at 500 g/ha [6, 17]: 0%
- pest or weed control at 125 g/ha [7, 16]: 0%
- pest or weed control at 500 g/ha [7, 17]: 0%
- pest or weed control at 125 g/ha [8, 16]: 0%
- pest or weed control at 500 g/ha [8, 17]: 0%
- pest or weed control at 125 g/ha [9, 16]: 0%
- pest or weed control at 500 g/ha [9, 17]: 0%
- pest or weed control at 125 g/ha [10, 16]: 0%
- pest or weed control at 500 g/ha [10, 17]: 0%
- plant injury at 125 g/ha [11, 16]: 0%
- plant injury at 500 g/ha [11, 17]: 0%
- pest or weed control at 250 g/ha [12]: 0%
- pest or weed control at 250 g/ha [13]: 40%
- pest or weed control at 250 g/ha [14]: 0%
- pest or weed control at 250 g/ha [15]: 0%

— patent publication US12077503B2, “Substituted cyclic amides and their use as herbicides” (FMC CORPORATION, priority 2015, dated 2024)
